Data on five molecules can be found in US20050124963A1, “Method for treating aspects of alcoholism, addiction and psychosis” (priority 2003, published 2005).

Read-outs that look alike come from different tables or passages of the source.

One experiment concerns the target D2 receptor (Homo sapiens, UniProt P14416). The note with it: 1-100 nM dopamine, in vitro; cited from earlier work.
The target of a further experiment is T1, striatal D2 receptors (Rattus norvegicus, UniProt P61169).
T1 construct: each rat underwent CO2 narcosis and cervical dislocation; the striata were removed; from tissue; host or cells: rat striatum (male Sprague Dawley)
T1 sequence (P61169 whole entry): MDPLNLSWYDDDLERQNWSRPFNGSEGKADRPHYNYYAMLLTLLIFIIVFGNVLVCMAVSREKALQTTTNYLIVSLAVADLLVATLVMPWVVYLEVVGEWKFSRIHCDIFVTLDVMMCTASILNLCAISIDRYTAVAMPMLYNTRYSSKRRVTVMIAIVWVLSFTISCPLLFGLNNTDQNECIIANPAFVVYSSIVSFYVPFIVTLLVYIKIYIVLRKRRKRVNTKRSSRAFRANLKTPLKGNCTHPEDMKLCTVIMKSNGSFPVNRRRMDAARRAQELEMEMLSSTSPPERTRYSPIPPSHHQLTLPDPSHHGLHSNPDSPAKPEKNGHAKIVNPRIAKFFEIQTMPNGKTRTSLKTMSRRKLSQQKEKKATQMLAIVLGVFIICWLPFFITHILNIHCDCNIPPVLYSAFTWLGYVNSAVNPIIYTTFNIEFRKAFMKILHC
The experiment can be described thus: [3H]PHNO binding to striatal D2 receptors. The note with it: control striata. Here is the method:
To induce ethanol dependence, rats (male Sprague Dawley, 200 g) received an intraperitoneal injection of 0.9% NaCl or 2 g/kg ethanol twice daily (i.e., 1.4 ml of 18% ethanol [in 0.9% NaCl] per 100 g at 9 AM and again at 3 PM daily) for 10 days (Lindholm et al., Alcohol 22: 165-171, 2000). On different days during the withdrawal period, each rat underwent CO2 narcosis and cervical dislocation; the striata were removed. The frozen (−70° C.) striata were blotted and weighed. […] The binding of [^3H]PHNO (or [+]-4-propyl-9-hydroxynaphthoxazine) (0.1 to 4.5 nM; […]; custom synthesized by New England Nuclear Corp.; non-specific binding defined by 10 μM S-(−)-sulpiride) to striatal D2 receptors was done as reported elsewhere (Seeman et al., Synapse 14: 254-262, 1993; Synapse 46: 235-239, 2002).
To confirm the elevation of D2^High sites by another method, [^3H]PHNO (or [+]-4-propyl-9-hydroxynaphthoxazine), a selective D2 agonist (Seeman et al., Synapse 14: 254-262, 1993) can be used.

Experiment [1] relates to high-affinity states of D2. The note with it: rats sensitized to amphetamine; cited from earlier work.
In experiment [2] the target is T2, high-affinity state of dopamine D2 receptor (D2High) (Rattus norvegicus, UniProt P61169).
T2 sequence (P61169 whole entry): as above
The target in experiment [3] is T2, high-affinity state of dopamine D2 receptor (D2High). The note with it: 7 days withdrawal, [3H]PHNO.
The test system of experiment [4] is high-affinity state of dopamine D2 receptor (D2High). Type of experiment: in vivo, rat.
Setting [5] is: first eight days after stopping ethanol, [3H]raclopride.

D2 receptor, sequence (P14416 whole entry): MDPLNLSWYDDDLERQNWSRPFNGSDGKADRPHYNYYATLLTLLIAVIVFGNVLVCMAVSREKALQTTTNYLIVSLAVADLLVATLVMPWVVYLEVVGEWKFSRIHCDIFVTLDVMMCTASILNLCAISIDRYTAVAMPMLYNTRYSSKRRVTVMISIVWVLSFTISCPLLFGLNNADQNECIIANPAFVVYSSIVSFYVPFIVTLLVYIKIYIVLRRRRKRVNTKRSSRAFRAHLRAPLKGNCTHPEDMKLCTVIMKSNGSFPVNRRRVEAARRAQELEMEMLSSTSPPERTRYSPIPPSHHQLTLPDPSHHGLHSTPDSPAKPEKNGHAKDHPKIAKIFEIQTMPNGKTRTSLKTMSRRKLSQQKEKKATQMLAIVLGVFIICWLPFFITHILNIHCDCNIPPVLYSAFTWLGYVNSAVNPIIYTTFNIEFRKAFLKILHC

For the molecule `CCN1CCC[C@H]1CNC(=O)c1c(O)c(Cl)cc(Cl)c1OC` (racemic) [[^3H]raclopride], on D2 receptor, the “displacement by low concentrations of dopamine” value is on record as “not significantly displaced”.
On to `CCCN1CCOC2c3cc(O)ccc3CCC21` (stereo not drawn) [[^3H]PHNO, [+]-4-propyl-9-hydroxynaphthoxazine], for which, on striatal D2 receptors, the Kd (in general, the concentration at which binding is half-saturated) was 0.71 nM.
Consider `CC(N)Cc1ccccc1` (stereo not drawn) [amphetamine], for which the “elevation of high-affinity states of D2” value in experiment [1] is given as “over 350%”.
As for `CCO` [ethanol], in experiment [2] (before returning to normal), the “duration of elevation of D2High sites after ethanol withdrawal” value is given as “almost two weeks”. Also, in experiment [2] (day 15 after stopping ethanol (back to normal)), the D2High sites was ≤ 2 pmol/g. This molecule also registered a D2High sites in experiment [2] (days 11 and 12 after stopping ethanol) of 4.8 pmol/g. Further, the “increase in D2High” value in experiment [2] (ethanol-withdrawn) is 3.2 fold. In experiment [2] (first eight days after stopping ethanol (2 g/kg i.p. twice daily, 10 days), [3H]raclopride, no guanilylimidodiphosphate), this molecule yielded a D2 density of 19 ± 0.8 pmol/g. Also, in experiment [2] (setting [5]), the “D2High density (increase in receptor density with guanilylimidodiphosphate)” value was 7.2 ± 0.6 pmol/g and the “D2 density in the presence of guanilylimidodiphosphate” value was 26.1 ± 0.8 pmol/g. For the same molecule, in experiment [2] (upon withdrawal of ethanol, [3H]raclopride), the “increase of D2High over control value of 2 pmol/g” value is recorded as 360%. Also, the “increase of D2High over control value of 2.6 pmol/g” value in experiment [3] came out at 273%. In experiment [3] (ethanol-treated striata), this molecule gave a D2High of 7.1 pmol/g.
`FC(F)OC(Cl)C(F)(F)F` (stereo not drawn) [isoflurane] yielded a D2High density in experiment [4] (ethanol-treated rats five days into withdrawal, isoflurane one hour (deep stage 3 surgical anesthesia), striata 24 hours later) of 1.3 pmol/g. Moreover, in experiment [4] (one hour of deep general anesthesia, ethanol-withdrawn rats), the “effect on elevated D2High” value is reported as “restored D2^High to normal”.
